Test results from patent US20240243319A1, “AQUEOUS ELECTROLYTE, SALTS USED THEREIN, AND REDOX FLOW BATTERY USING SAID AQUEOUS ELECTROLYTE” (MITSUBISHI CHEMICAL CORPORATION, priority 2021, published 2024).

Experiment: Dissolution test in 1 M chloride salt aqueous solutions
Assay type: physicochemical
Details: potassium chloride, lithium chloride and ammonium chloride aqueous solution, room temperature
[1] = 0.01 mmol added to 10 mL each of 1 M sodium chloride

| dissolution in aqueous salt solutions [1] | dissolution in aqueous salt solutions (0.05 mmol added to 10 mL each of 1 M sodium chloride) | Compound |
| --- | --- | --- |
| did not dissolve | – | O=C(O)c1ccc2c(c1)C(=O)c1c(O)ccc(O)c1C2=O [compound represented by formula (2a-1)] |
| did not dissolve | – | O=C1c2ccccc2C(=O)c2c1cc(S(=O)(=O)[O-])c(O)c2O.[Na+] [Alizarin Red S, reference compound] |
| – | did not dissolve | O=C(O)c1ccc2nc3cc(O)c(O)cc3nc2c1 [compound represented by formula (1a-1)] |
